In patent US5663162A, “Cephem derivatives” (priority 1993, dated 1997):
≈ marks a conversion by molar mass, not a printed value. Like-named read-outs stand apart in the source and are kept apart here.

Tests used:
Experiment in all cases: Antibacterial activity test, MIC by two-fold dilution method
E. cloacae G-0008 = assay type: cell-based; details: Enterobacter cloacae, G0008; E. cloacae G-0008; 10^6 CFU/ml, 35° C., 18 to 20 hours; read-out: Minimum Inhibition Concentration
Protocol: (§1) The measurement was carried out in the following manner: 10^6 CFU/ml of a bacterium to be tested was inoculated on a Medium N for disc susceptibility test (manufactured by Nissui Pharmaceutical Co., Ltd.), and cultivated at 35° C. for 18 to 20 hours.

P. aeruginosa GN10362 = assay type: cell-based; details: Pseudomonas aeruginosa
Protocol: as §1

P. aeruginosa E-2 = assay type: cell-based; details: Pseudomonas aeruginosa
Protocol: as §1

K. pneumoniae PC1602 = assay type: cell-based; details: Klebsiella pneumoniae; K. pneumoniae PC1602; 10^6 CFU/ml, 35° C., 18 to 20 hours; read-out: Minimum Inhibition Concentration
Protocol: as §1

M. morganii 1510/S-1 = assay type: cell-based; details: Morganella morganii
Protocol: as §1

S. Aureus 209P JC-1 = assay type: cell-based; details: Staphylococcus aureus, read-out: Minimum Inhibition Concentration
Protocol: as §1

S. epidermidis ATCC14990 = assay type: cell-based; details: Staphylococcus epidermidis
Protocol: as §1

E. coli NIHJ JC-2 = assay type: cell-based; details: Escherichia coli, NIHJJC2; E. coli NIHJ JC-2; 10^6 CFU/ml, 35° C., 18 to 20 hours; read-out: Minimum Inhibition Concentration
Protocol: as §1

P. vulgaris GN76 = assay type: cell-based; details: Proteus vulgaris; P. vulgaris GN76; 10^6 CFU/ml, 35° C., 18 to 20 hours; read-out: Minimum Inhibition Concentration
Protocol: as §1

C. freundii GN346/16 = assay type: cell-based; details: Citrobacter freundii
Protocol: as §1

S. marcescens No. 1 = assay type: cell-based; details: Serratia marcescens
Protocol: as §1

S. Aureus 126 = assay type: cell-based, Staphylococcus aureus (methicillin-resistant, MRSA); details: Staphylococcus aureus, read-out: Minimum Inhibition Concentration
Protocol: as §1

S. Aureus 133 = assay type: cell-based, Staphylococcus aureus (methicillin-resistant, MRSA); details: Staphylococcus aureus, read-out: Minimum Inhibition Concentration
Protocol: as §1

[1] = P. aeruginosa GN10362, 10^6 CFU/ml, 35° C., 18 to 20 hours, read-out: Minimum Inhibition Concentration
[2] = E2, P. aeruginosa E-2, 10^6 CFU/ml, 35° C., 18 to 20 hours, read-out: Minimum Inhibition Concentration
[3] = 1510/S1, M. morganii 1510/S-1, 10^6 CFU/ml, 35° C., 18 to 20 hours, read-out: Minimum Inhibition Concentration
[4] = S. Aureus 209P JC-1, 10^6 CFU/ml, 35° C., 18 to 20 hours
[5] = S. epidermidis ATCC14990, 10^6 CFU/ml, 35° C., 18 to 20 hours, read-out: Minimum Inhibition Concentration
[6] = C. freundii GN346/16, 10^6 CFU/ml, 35° C., 18 to 20 hours, read-out: Minimum Inhibition Concentration
[7] = S. marcescens No. 1, 10^6 CFU/ml, 35° C., 18 to 20 hours, read-out: Minimum Inhibition Concentration
[8] = S. Aureus 126 (MRSA), 10^6 CFU/ml, 35° C., 18 to 20 hours
[9] = S. Aureus 133 (MRSA), 10^6 CFU/ml, 35° C., 18 to 20 hours
[10] = ATCC14990, read-out: Minimum Inhibition Concentration

Row | Compound | MIC (E. cloacae G-0008) | MIC (P. aeruginosa GN10362; [1]) | MIC (P. aeruginosa E-2; [2]) | MIC (K. pneumoniae PC1602) | MIC (M. morganii 1510/S-1; [3]) | MIC (S. Aureus 209P JC-1; [4]) | MIC (S. epidermidis ATCC14990; [5]) | MIC (E. coli NIHJ JC-2) | MIC (P. vulgaris GN76) | MIC (C. freundii GN346/16; [6]) | MIC (S. marcescens No. 1; [7]) | MIC (S. Aureus 133; MRSA) | MIC (S. Aureus 209P JC-1; 209P) | MIC (S. Aureus 126; [8]) | MIC (S. Aureus 133; [9]) | MIC (S. epidermidis ATCC14990; [10]) | also measured
1 | Nc1nc(/C(=N/OCF)C(=O)N[C@@H]2C(=O)N3C(C(=O)[O-])=C(C[n+]4cc5sccn5c4[C@H](CO)NC=O)CS[C@H]23)ns1 [Example 164, (6R,7R)-7-[(Z)-2-(5-amino-1,2,4-thiadiazol-3-yl)-2-fluoromethoxyiminoacetamido]-3-[5-((R)-1-formylamino-2-hydroxyethyl]imidazo[5,1-b]thiazolium-6-yl)methyl-3-cephem-4-carboxylate] | 0.05 µg/mL (≈ 0.0799 µM) | 0.78 µg/mL (≈ 1.25 µM) | 0.78 µg/mL (≈ 1.25 µM) | ≤ 0.025 µg/mL | ≤ 0.025 µg/mL | 0.78 µg/mL (≈ 1.25 µM) | 0.78 µg/mL (≈ 1.25 µM) | ≤ 0.025 µg/mL | 0.2 µg/mL (≈ 0.32 µM) | ≤ 0.025 µg/mL | ≤ 0.025 µg/mL | 6.25 µg/mL (≈ 9.99 µM) |  |  |  |  | MIC (S. Aureus 126; MRSA): 6.25 µg/mL (≈ 9.99 µM)
2 | Nc1nc(/C(=N/OC2CCCC2)C(=O)N[C@@H]2C(=O)N3C(C(=O)[O-])=C(C[n+]4cc5sccn5c4)CS[C@H]23)ns1 [Example 112, (6R,7R)-7-[(Z)-2-(5-Amino-1,2,4-thiadiazol-3-yl)-2-cyclopentyl-oxyiminoacetamide]-3-(imidazo[5,1-b]thiazolium-6-yl)methyl-3-cephem-4-carboxylate] | 0.78 µg/mL (≈ 1.36 µM) | 3.13 µg/mL (≈ 5.45 µM) | 3.13 µg/mL (≈ 5.45 µM) | 0.78 µg/mL (≈ 1.36 µM) |  |  | 0.2 µg/mL (≈ 0.348 µM) | 0.78 µg/mL (≈ 1.36 µM) | 3.13 µg/mL (≈ 5.45 µM) | 0.78 µg/mL (≈ 1.36 µM) |  |  | 0.39 µg/mL (≈ 0.679 µM) | 3.13 µg/mL (≈ 5.45 µM) | 3.13 µg/mL (≈ 5.45 µM) |  | MIC (M. morganii 1510/S-1; 1510/S1, read-out: Minimum Inhibition Concentration): 0.39 µg/mL (≈ 0.679 µM); MIC (S. marcescens No. 1; NO.1, read-out: Minimum Inhibition Concentration): 1.56 µg/mL (≈ 2.71 µM)
3 | C[C@H](O/N=C(\C(=O)N[C@@H]1C(=O)N2C(C(=O)[O-])=C(C[n+]3cc4sccn4c3)CS[C@H]12)c1csc(N)n1)C(=O)O [Example 2, (6R,7R)-7-[(Z)-2-(2-Aminothiazol-4-yl)-2-((S)-l-carboxyethoxy-imino)acetamide]-3-(imidazo[5,1-b]thiazolium-6-yl)methyl-3-cephem-4-carboxylate] | 0.05 µg/mL (≈ 0.0866 µM) | 0.78 µg/mL (≈ 1.35 µM) | 0.78 µg/mL (≈ 1.35 µM) | ≤ 0.025 µg/mL | ≤ 0.025 µg/mL |  |  | 0.05 µg/mL (≈ 0.0866 µM) | ≤ 0.025 µg/mL |  | ≤ 0.025 µg/mL |  | 6.25 µg/mL (≈ 10.8 µM) | > 100 µg/mL | 100 µg/mL (≈ 173 µM) | 6.25 µg/mL (≈ 10.8 µM) | MIC (C. freundii GN346/16; GN346, read-out: Minimum Inhibition Concentration): 0.39 µg/mL (≈ 0.675 µM)
4 | CO/N=C(\C(=O)N[C@@H]1C(=O)N2C(C(=O)[O-])=C(C[n+]3cc4scc(C(N)=O)n4c3)CS[C@H]12)c1nsc(N)n1 [Example 44, (6R,7R)-7-[(Z)-2-(5-Amino-1,2,4-thiadiazol-3-yl)-2-methoxyiminoacetamide]-3-(3-carbamoylimidazo[5,1-b]thiazolium-6-yl)methyl-3-cephem-4-carboxylate] | 0.05 µg/mL (≈ 0.0887 µM) |  |  | ≤ 0.025 µg/mL | 0.05 µg/mL (≈ 0.0887 µM) | 0.78 µg/mL (≈ 1.38 µM) | 0.78 µg/mL (≈ 1.38 µM) | ≤ 0.025 µg/mL | 0.2 µg/mL (≈ 0.355 µM) | 0.1 µg/mL (≈ 0.177 µM) | 0.05 µg/mL (≈ 0.0887 µM) |  |  | 25 µg/mL (≈ 44.4 µM) | 12.5 µg/mL (≈ 22.2 µM) |  | MIC (P. aeruginosa GN10362; GN10362, read-out: Minimum Inhibition Concentration): 1.56 µg/mL (≈ 2.77 µM); MIC (P. aeruginosa E-2; E2, read-out: Minimum Inhibition Concentration): 1.56 µg/mL (≈ 2.77 µM)
5 | NC(=O)c1csc2c[n+](CC3=C(C(=O)[O-])N4C(=O)[C@@H](NC(=O)/C(=N\OCCF)c5nsc(N)n5)[C@H]4SC3)cn12 [Example 48, (6R,7R)-7-[(Z)-2-(5-Amino-2,4-thiadiazol-3-yl)-2-(2-fluoroethoxyimino)acetamide]-3-(3-carbamoylimidazo[5,1-b]thiazolium-6-yl)methyl-3-cephem-4-carboxylate] | ≤ 0.025 µg/mL | 0.78 µg/mL (≈ 1.31 µM) | 0.78 µg/mL (≈ 1.31 µM) | ≤ 0.025 µg/mL | ≤ 0.025 µg/mL |  |  | ≤ 0.025 µg/mL | 0.2 µg/mL (≈ 0.336 µM) | 0.1 µg/mL (≈ 0.168 µM) | ≤ 0.025 µg/mL | 6.25 µg/mL (≈ 10.5 µM) | 0.39 µg/mL (≈ 0.655 µM) | 12.5 µg/mL (≈ 21 µM) |  | 0.39 µg/mL (≈ 0.655 µM) | 
